Measurements reported in US20030143199A1, “Use of STAT-6 inhibitors as therapeutic agents” (priority 2001, published 2003).
Entries after “also recorded” stand apart in the source; their conditions may differ.

Tests used:
[1] = tested on: Human Hodgkin's lymphoma cells L1236; assay: Effect of IBT and interferon on Hodgkin's lymphoma cells (CellTiter 96 MTS viability); assay type: cell-based; settings: 3, 5 or 7 days; IBT at doses up to 10 μM; FIG. 12
Procedure: Human Hodgkin's lymphoma cells L1236 were incubated for 3, 5 or 7 days in complete RPMI1640 and 10% FBS. The cells were plated at 3×10^5 cells/mL.
The effect was more pronounced after 7 days of incubation.
The results are illustrated in FIG. 12. The y-axis represent the normalized viability when compared to control cells incubated with 0.1% DMSO with no interferon or IBT added, adjusted at 100%. The cell viability was determined using CellTiter 96 Aqueous One Solution Cell Proliferation Assay (Promega). (CellTiter 96 uses a novel tetrazolium compound (MTS) and an electron coupling reagent, phenazine ethosulfate.)

[2] = tested on: Chronic lymphocytic leukemia [CLL] cells; assay: Protection against spontaneous apoptosis and fludarabine-induced apoptosis (PI negative / DiOC6 high cells by FACS); assay type: cell-based; settings: one micromolar, 3 days culture, FIG. 2
Procedure: Chronic lymphocytic leukemia [CLL] cells were cultured for 3 days as described in Example 2. Some of the cultures were supplemented with one micromolar of PFT-open or PFT-closed, as indicated. In the experiment shown in the bottom panel of FIG. 2, some of the cultures also contained the cytotoxic adenine nucleoside analog fludarabine [abbreviated F-AraA]. Fludarabine is the first line treatment for CLL, and the toxicity of the drug is dependent upon the p53 pathway. To assess healthy, viable cells, staining was done with both PI, as indicated in Example 2, and with the mitochondrial dye DiOC6. Cells that were both PI negative and DIOC6 high were enumerated by FACS.

[3] = tested on: malignant lymphocytes from two patients with chronic lymphocytic leukemia [CLL]; assay: Effect of the p53 inhibitory compounds on B-CLL viability (PI exclusion by FACS, MTT), 3 days culture; assay type: cell-based; settings: FIG. 1
Text: The malignant lymphocytes from two patients with chronic lymphocytic leukemia [CLL] were isolated by ficoll-hypaque sedimentation and suspended at a density of 1 million cells per milliliter in RPMI 1640 medium supplemented with 10% fetal bovine serum. Two hundred microliter aliquots of cells were dispersed in the wells of culture plates containing the indicated final concentrations of either PFT-α (“PFT-open”) or IBT (PFT-closed). After 3 days culture, viable cells were enumerated by fluorescence-activated cell sorting [FACS] after staining with propidium iodide [PI]. Viable cells excluded the dye [open circles]. In addition, cell metabolism was assessed by the ability of the cells to […] the tetrazolium dye MTT [closed squares].

[4] = tested on: BEAS-2B human airway epithelial cells; assay: Viability of treated cells at end of incubation in the 12/15-lipoxygenase promoter/luciferase STAT-6 reporter assay; assay type: cell-based; settings: 10 μM for 1 hour, then IL-4 10 ng/ml, 16 hours
Procedure: The BEAS-2B human airway epithelial cells were transiently transfected with the human 12/15-lipoxygenase promoter/luciferase reporter gene. Cells were then incubated with the IBT analogs (FIG. 5) at 10 μM for 1 hour, followed by IL-4 (10 ng/ml). After 16 hours, luciferase was measured using a chemiluminometer. The STAT-6 induction was normalized using the B-gal results as “background.” The viability of the treated cells was visually verified at the end of the incubation, and found to be >95%. Results shown in FIG. 3 are the mean of duplicate measurements.
Human airway epithelial cells, BEAS-2B, were transiently transfected with the human 12/15-lipoxygenase promoter/luciferase reporter plasmid with and without a STAT6 expressing plasmid. The cells were incubated with 10 μM of STAT-6 (Control Sample 1); 10 μM STAT-6 (Sample 2); a mixture of STAT-6 and compound 8 (Sample 3); and compound 8 alone (Sample 4); for 1 hour. This was followed treatment with 10 ng/mL of IL-4 (except control). After 16 hours, luciferase was measured using a chemiluminometer. The STAT-6 induction was normalized using the β-gal results as “background”. The viability of the treated cells was visually verified at the end of the incubation, and found to be>95%. The results are illustrated in FIG. 7.

[5] = Cyclization of PFT-α to IBT in DMSO/water dilutions, reversed phase HPLC over time; assay type: physicochemical; settings: for % cyclized to IBT: DMSO stock diluted with water, 25° C., reversed phase HPLC
Procedure: The preparation of PFT-α was accomplished as shown in Scheme 1 by reacting 4-methyl-2-bromoacetophenone with 2-amino-4,5,6,7-tetrahydrobenzothiazole. Upon recrystallization of the PFT-α from isopropyl alcohol, it was noticed that PFT-α readily ring-closed completely to the imidazo[2, 1-b]benzothiazole (IBT). Therefore, a subsequent investigation was undertaken to study the propensity of PFT-α to ring-close in protic solvents. […] Thus, PFT-α was dissolved in DMSO and water dilutions were made from this stock.

With `Cc1ccc(-c2cn3c4c(sc3n2)CCCC4)cc1` [IBT] the “Anti-proliferative / growth-inhibitory effect on L1236 cells (normalized viability)” value [1] was “only a small anti-proliferative effect”, the “Effect on untreated CLL cells (spontaneous apoptosis)” value [2] was “nearly equivalent effects” and the “Protective effect on CLL cells treated with F-AraA (fludarabine)” value ([2]; with fludarabine, compared with PFT-α) was “less protective effects”. The “CLL survival / toxicity (viable cells by PI exclusion and MTT)” value [3] was “non-toxic at concentrations up to 100 micromolar” and the “Viability of the treated cells, visually verified at the end of the incubation” value [4] was greater than 95%.
In the case of `Cc1ccc(C(=O)Cn2c3c(sc2=N)CCCC3)cc1` [PFT-α], the “Effect on untreated CLL cells (spontaneous apoptosis)” value [2] is reported as “nearly equivalent effects”, the “CLL survival / toxicity (viable cells by PI exclusion and MTT)” value [3] is reported as “dose-dependently reduced CLL survival” and the “% cyclized to IBT” value ([5]; 0 h) is reported as 5%. The “% cyclized to IBT” value ([5]; 12 h) was 47%, the “% cyclized to IBT” value ([5]; 24 h) was 69% and the “% cyclized to IBT” value ([5]; 48 h) was 92%. For the same compound, the “Stability / ring closure in protic solvents and aqueous solution (in words)” value ([5]; protic solvents, room temperature, aqueous solution) was “unstable in aqueous solution under in vivo conditions; also recorded: begins cyclizing at room temperature immediately upon dissolution in protic solvents”.
